Experiments:
PDE2A [1] = test: In vitro autoradiography on pig brain cryosections, blocking studies; format: binding; conditions: 10 µM blocker
Procedure: To verify these findings, blocking studies with 10 µM of TA1 (a potent PDE2 ligand)
Pig brain cryosections (16 µm; Microm HM560 Cryostat, FischerScientific GmbH, Schwerte, Germany) were thawed, dried in a stream of cold air, and preincubated for 10 min with buffer (50 mM TRIS-HCl, pH 7.4, 120 mM NaCl, 5 mM KCl, 2 mM MgCl2) at room temperature. […] The sections were then washed twice with ice-cold 50 mM TRIS-HCl (pH 7.4), dipped in ice-cold deionized water, dried in a stream of cold air, and exposed for 60 min to an image plate. The analysis was performed using an image plate scanner (HD-CR 35; Duerr NDT GmbH, Bietigheim Bissingen, Germany).

[2] = In vitro stability of the radioligand; format: physicochemical; conditions: PBS, pig plasma, n-octanol and saline formulation containing 10% ethanol; 40 °C, up to 1 h
Procedure: (§1) The lipophilicity was determined by the shake-flask method in the n-octanol/PBS system. […] Moreover, the big discrepancy between the experimental and the calculated logD7.4 value was already observed for our PDE2 tracer [^18F]TA5 and has been previously discussed. It is assumed that the experimentally determined higher hydrophilicity of [^18F]TA5 might be due to the solvation effect related to hydrogen bonding and ionization of the radioligand in the aqueous buffered system. Whereas with the software-based determination, this effect may be underestimated. Therefore, the calculated logD value is often higher than the experimentally determined value.
Samples were taken at 30 and 60 min and analyzed by radio-TLC and radio-HPLC.

[3] = Lipophilicity by shake-flask method (n-octanol/PBS); format: physicochemical; conditions: n-octanol/PBS pH 7.4, ambient temperature, read-out: logD7.4
Procedure: as §1
The tubes were shaken for 20 min using a mechanical shaker (HS250 basic, IKA Labortechnik GmbH & Co. KG, Staufen, Germany) followed by centrifugation (5000 rpm for 5 min) and separation of the phases. Aliquots of 1 mL of the organic and the aqueous phase were taken, and the activity was measured using an automated gamma counter (1480 WIZARD, Fa. Perkin Elmer, Waltham, MA, USA). The distribution coefficient (D) was calculated as [activity (cpm/mL) in n-octanol]/[(activity (cpm/mL) in PBS], specified as the decadic logarithm (logD).

[4] = In vivo metabolism of the radioligand in mice; design: species or system mouse; conditions: i.v., 30 min p.i., radio-HPLC
Procedure: Prior to the analysis with RP-HPLC, the samples were treated with a mixture of MeCN/H2O (4:1, v/v) to precipitate the proteins. The recovery of radioactivity in plasma and brain samples was 96% and 99%, respectively. […] As shown in the chromatograms (Figure 5), the two radio-metabolites ([^18F]M1 and [^18F]M2) found in the brain were also observed in the corresponding plasma sample, indicating their ability to penetrate the blood-brain barrier. […] On the basis of the in vitro metabolites M1 and M2, both elucidated by LC-MS in the mentioned study, we can conclude about the brain penetrating radio-metabolites [^18F]M1 and [^18F]M2 as products of N-oxidation or C-hydroxylation. Besides, some of the more polar radio-metabolites detected in plasma could only tentatively be assigned as formed by mono-oxygenation, di-oxygenation, reduction, and demethylation, but were not investigated further. […]
Protein precipitation of plasma and brain samples was performed in duplicate with ice-cold MeCN/H2O (8:2, v/v), which was added to the samples (sample/solvent, 1:4, v/v). […] The combined supernatants were concentrated at 70 °C under nitrogen stream until a remaining volume of 100 µL and subsequently quantified by analytical radio-HPLC with an isocratic system (42% MeCN/20 mM NH4OAcaq.; flow rate: 1.0 mL/min). […]

PDE2A [5] = target: T1, PDE2A (Mus musculus, UniProt Q922S4); test: Dynamic PET-MRI studies in CD-1 mice; format: in vivo; conditions: female CD-1 mice, i.v., 5 min p.i.; whole brain, striatum and cerebellum
T1 construct: from tissue; host or cells: brain of living female CD-1 mice (in vivo PET)
T1 sequence (Q922S4 1-939): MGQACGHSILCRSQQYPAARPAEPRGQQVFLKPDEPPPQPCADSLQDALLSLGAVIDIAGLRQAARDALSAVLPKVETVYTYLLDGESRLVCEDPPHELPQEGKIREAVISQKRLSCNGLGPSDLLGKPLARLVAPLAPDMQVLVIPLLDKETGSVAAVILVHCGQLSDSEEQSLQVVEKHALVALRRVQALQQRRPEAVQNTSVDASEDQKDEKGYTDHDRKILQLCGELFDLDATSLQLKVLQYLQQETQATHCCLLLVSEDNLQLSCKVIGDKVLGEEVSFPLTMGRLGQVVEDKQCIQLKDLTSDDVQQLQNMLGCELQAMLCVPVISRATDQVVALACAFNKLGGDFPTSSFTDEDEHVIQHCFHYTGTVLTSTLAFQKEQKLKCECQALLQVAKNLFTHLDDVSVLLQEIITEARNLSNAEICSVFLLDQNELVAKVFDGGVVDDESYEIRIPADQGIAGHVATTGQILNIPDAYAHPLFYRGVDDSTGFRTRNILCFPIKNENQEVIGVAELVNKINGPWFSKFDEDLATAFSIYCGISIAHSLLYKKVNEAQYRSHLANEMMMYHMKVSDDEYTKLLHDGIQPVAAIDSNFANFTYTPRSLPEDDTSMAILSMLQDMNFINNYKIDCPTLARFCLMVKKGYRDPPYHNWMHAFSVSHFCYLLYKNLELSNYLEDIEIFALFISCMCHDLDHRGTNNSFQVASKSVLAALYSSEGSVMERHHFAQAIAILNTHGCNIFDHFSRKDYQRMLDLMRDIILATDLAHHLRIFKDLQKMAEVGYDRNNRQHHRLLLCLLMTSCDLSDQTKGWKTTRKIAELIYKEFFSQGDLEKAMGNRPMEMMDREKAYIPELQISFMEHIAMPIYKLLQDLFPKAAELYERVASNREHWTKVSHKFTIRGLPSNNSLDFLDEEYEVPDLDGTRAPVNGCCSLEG
Procedure: As reflected by the time-activity curves (TACs) shown in Figure 6, the radioactivity uptake in the whole brain, striatum, and cerebellum reached standardized uptake values (SUVs) of about 0.7 at 5 min p.i., indicating blood-brain barrier penetration.
PET/MRI scans were performed using a preclinical PET/MRI system (nanoScan, Mediso Medical Imaging Systems, Budapest, Hungary). Animals were anesthetized with a mixture of air/isoflurane (2.0%, 200 mL/min) (Anesthesia Unit U-410, agntho’s, Lidingö, Sweden), and their body temperature maintained at 37 °C with a thermal bed system. […] A dynamic 60-min PET scan was started 20 sec before radioligand injection. The list-mode data were reconstructed into 33 frames (12 × 10 sec, 6 × 30 sec, 5 × 1 min, 10 × 5 min) with 3D-ordered subset expectation maximization, 4 iterations, and 6 subsets, using an energy window of 400 to 600 KeV and coincidence mode of 1–5. After the PET scan, an MRI scan was performed for anatomical orientation and attenuation correction on a 1T magnet using a T1-weighted gradient-echo sequence (TR = 15 ms, TE = 2.6 ms). The data analysis was done with PMOD (PMOD Technologies Ltd., Zurich, Switzerland, v. 3.6), and an atlas-based method was used to obtain SUV time-activity curves for the striatum, cerebellum, and the whole brain.

hPDE2A = conditions: cited from earlier work
hPDE10A = test system: hPDE10A; design: method as in PMID 24189054, PMID 23651455; conditions: cited from earlier work
PDE2A [6] = conditions: cited from earlier work
PDE10A = conditions: cited from earlier work

COc1ccc(Cl)c(-c2nc(C)c3nnc4ccc(-c5ccnc(F)c5)cc4n23)c1 [BIT1, 1-(2-chloro-5-methoxyphenyl)-8-(2-fluoropyridin-4-yl)-3-methylbenzo[e]imidazo[5,1-c][1,2,4]triazine]
decrease of [18F]BIT1 binding in caudate nucleus (Cd) (PDE2A [1]; 1.72 nM [18F]BIT1): ~ 50%
decrease of [18F]BIT1 binding in nucleus accumbens (Acb) (PDE2A [1]; 1.72 nM [18F]BIT1): ~ 30%
decrease of [18F]BIT1 binding in cerebellum (Cb) (PDE2A [1]; 1.72 nM [18F]BIT1, non-PDE2A region): 20–30%

COc1ccc(Cl)c(-c2nc(C)c3nnc4ccc(-c5ccnc([18F])c5)cc4n23)c1 [[^18F]BIT1]
in vitro stability (radiochemical purity after incubation) [2]: ≥ 99%
logD [3]: 1.81 ± 0.05
intact tracer, fraction of total activity in brain ([4]; brain homogenate): 78%
intact tracer, fraction of total activity in plasma [4]: 43%
standardized uptake value (SUV) in brain (PDE2A [5]): ~ 0.7

Cc1nc(-c2cnn(C)c2-c2ccc(C(F)(F)F)cc2)c2c(N3CC([18F])C3)ncnn12 [[^18F]PF-05270430]
IC50 (hPDE2A): 0.5 nM
IC50 (hPDE10A): > 3000 nM

COc1ccc2nnc3c(C)nc(-c4cc(OCCC[18F])ccc4F)n3c2n1 [[^18F]TA3]
IC50 (PDE2A [6]): 11.4 nM
IC50 (PDE10A): 318 nM

COc1ccc2nnc3c(C)nc(-c4cc(OCCCC[18F])ccc4F)n3c2n1 [[^18F]TA4]
IC50 (PDE2A [6]): 7.3 nM
IC50 (PDE10A): 913 nM

CCCCOc1ccc(F)c(-c2nc(C)c3nnc4ccc(OCC[18F])nc4n23)c1 [[^18F]TA5]
IC50 (PDE10A): > 1000 nM
